Assay results: ChEMBL document CHEMBL1909046, “DrugMatrix in vitro pharmacology data”

Tests used:
[1] = DRUGMATRIX: Glutamate, NMDA, Phencyclidine radioligand binding (ligand: [3H] TCP); type: cell membranes, Rattus norvegicus, Wistar, Cerebral cortex, Membrane; settings: Not Active = under 50% inhibition at 10 µM
[2] = biological target: T1, C-X-C chemokine receptor type 1 (Homo sapiens, UniProt P25024); note: in other assays of this panel Not Active means under 50% inhibition at 10 µM
T1 sequence (P25024 whole entry): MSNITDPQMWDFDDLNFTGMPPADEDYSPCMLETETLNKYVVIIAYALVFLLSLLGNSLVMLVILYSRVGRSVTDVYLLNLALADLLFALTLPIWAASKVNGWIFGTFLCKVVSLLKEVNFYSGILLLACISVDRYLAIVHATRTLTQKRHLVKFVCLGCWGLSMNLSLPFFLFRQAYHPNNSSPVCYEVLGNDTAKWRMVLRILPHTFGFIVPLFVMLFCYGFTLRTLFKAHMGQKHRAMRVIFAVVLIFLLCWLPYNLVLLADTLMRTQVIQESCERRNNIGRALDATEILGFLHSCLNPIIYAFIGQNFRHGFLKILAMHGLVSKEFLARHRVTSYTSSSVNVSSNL

[3] = biological target: Platelet-activating factor receptor (Homo sapiens, UniProt P25105); type: tissue-based; note: in other assays of this panel Not Active means under 50% inhibition at 10 µM
Platelet-activating factor receptor, sequence (P25105 whole entry): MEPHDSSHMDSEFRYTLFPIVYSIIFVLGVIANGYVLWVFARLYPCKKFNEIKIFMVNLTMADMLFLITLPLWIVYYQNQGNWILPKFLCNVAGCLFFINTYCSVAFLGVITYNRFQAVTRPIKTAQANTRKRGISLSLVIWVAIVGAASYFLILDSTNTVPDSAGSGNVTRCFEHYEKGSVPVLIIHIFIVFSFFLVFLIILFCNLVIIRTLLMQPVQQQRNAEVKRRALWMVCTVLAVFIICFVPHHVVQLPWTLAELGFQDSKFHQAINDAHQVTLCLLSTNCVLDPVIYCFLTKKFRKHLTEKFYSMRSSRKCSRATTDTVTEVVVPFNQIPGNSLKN

[4] = biological target: T2, Nitric oxide synthase, inducible (Mus musculus, UniProt P29477); set-up: species or system Escherichia coli;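 note: inhibition of iNOS enzyme activity measured with L-arginine as substrate; in other assays of this panel Not Active means under 50% inhibition at 10 µM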
T2 sequence (P29477 whole entry): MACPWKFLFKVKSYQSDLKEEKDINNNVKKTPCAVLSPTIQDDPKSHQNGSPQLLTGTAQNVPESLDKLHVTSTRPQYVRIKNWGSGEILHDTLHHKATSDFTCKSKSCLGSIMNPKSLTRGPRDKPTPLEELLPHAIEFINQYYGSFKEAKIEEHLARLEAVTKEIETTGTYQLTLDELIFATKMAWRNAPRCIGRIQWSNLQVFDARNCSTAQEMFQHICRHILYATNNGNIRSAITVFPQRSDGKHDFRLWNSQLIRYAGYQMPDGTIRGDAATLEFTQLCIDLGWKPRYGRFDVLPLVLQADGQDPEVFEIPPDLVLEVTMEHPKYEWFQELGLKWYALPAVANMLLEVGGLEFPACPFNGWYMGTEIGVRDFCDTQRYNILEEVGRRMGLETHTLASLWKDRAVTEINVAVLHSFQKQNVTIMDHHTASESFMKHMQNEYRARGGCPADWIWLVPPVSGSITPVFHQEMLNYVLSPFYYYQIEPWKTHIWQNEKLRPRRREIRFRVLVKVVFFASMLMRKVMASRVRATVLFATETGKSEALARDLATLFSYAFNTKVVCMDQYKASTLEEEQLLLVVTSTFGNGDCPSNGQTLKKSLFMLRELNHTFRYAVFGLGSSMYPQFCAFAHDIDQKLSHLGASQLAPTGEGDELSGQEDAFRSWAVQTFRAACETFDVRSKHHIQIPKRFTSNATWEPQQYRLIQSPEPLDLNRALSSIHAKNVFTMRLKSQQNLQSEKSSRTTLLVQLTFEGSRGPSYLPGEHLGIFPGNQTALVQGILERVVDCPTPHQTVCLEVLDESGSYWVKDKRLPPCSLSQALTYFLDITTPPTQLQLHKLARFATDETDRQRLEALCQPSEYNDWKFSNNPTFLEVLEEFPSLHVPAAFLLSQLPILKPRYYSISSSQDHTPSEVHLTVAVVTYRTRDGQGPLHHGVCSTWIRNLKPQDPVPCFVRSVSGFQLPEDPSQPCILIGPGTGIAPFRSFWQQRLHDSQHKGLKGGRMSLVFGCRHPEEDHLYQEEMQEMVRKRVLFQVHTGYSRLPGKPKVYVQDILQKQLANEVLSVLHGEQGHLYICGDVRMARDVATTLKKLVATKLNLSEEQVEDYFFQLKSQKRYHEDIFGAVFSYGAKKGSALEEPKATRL

[5] = DRUGMATRIX: GABAA, Flunitrazepam, Central radioligand binding (ligand: [3H] Flunitrazepam); type: cell membranes, Rattus norvegicus, Wistar, Brain, Membrane; settings: Not Active = under 50% inhibition at 10 µM
[6] = biological target: T3, 3-hydroxy-3-methylglutaryl-coenzyme A reductase (Homo sapiens, UniProt P04035); set-up: species or system Escherichia coli;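 note: enzyme inhibition assay of HMG-CoA reductase using radiolabeled [14C]HMG-CoA as substrate; in other assays of this panel Not Active means under 50% inhibition at 10 µM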
T3 sequence (P04035 whole entry): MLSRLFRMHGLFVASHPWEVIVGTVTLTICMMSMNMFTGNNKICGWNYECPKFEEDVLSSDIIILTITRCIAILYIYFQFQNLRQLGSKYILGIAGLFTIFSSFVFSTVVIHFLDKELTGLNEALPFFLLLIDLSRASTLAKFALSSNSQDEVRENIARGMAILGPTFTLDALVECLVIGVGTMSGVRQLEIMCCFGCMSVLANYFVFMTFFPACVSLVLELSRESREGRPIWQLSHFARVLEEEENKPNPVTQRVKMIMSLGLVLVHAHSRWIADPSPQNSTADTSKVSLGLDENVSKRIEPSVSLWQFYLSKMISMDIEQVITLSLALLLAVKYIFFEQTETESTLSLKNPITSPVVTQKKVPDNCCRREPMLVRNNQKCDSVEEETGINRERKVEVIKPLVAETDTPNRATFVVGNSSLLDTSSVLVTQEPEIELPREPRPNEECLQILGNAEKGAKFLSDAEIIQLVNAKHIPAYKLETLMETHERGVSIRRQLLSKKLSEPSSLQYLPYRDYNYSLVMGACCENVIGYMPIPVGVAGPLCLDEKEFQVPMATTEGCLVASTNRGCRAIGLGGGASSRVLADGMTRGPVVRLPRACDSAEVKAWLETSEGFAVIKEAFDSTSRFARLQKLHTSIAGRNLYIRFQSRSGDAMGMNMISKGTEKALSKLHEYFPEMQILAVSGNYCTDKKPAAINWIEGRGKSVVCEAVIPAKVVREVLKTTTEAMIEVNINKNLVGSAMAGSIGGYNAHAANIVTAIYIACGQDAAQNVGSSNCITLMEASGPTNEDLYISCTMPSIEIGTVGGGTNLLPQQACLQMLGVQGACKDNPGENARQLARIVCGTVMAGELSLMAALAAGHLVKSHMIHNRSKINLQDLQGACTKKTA

[7] = DRUGMATRIX: Nicotinic Acetylcholine radioligand binding (ligand: [125I] Epibatidine); type: cell membranes, Membrane; settings: imr-32; Not Active = under 50% inhibition at 10 µM

Cc1ccc(S(=O)(=O)NC(=O)NN2CCCCCC2)cc1 [TOLAZAMIDE]
Not Active: IC50 [1] | Ki [1] | IC50 [2] | IC50 [3] | IC50 [4] | IC50 [5] | Ki [5] | IC50 [6] | IC50 [7] | Ki [7]

CC[C@@]1(O)C(=O)OCc2c1cc1n(c2=O)Cc2cc3c(CN(C)C)c(O)ccc3nc2-1 [TOPOTECAN]
Not Active: IC50 [1] | Ki [1] | IC50 [2] | IC50 [3] | IC50 [4] | IC50 [5] | Ki [5] | IC50 [6] | IC50 [7] | Ki [7]

CC1=C(/C=C/C(C)=C/C=C/C(C)=C/C(=O)O)C(C)(C)CCC1 [TRETINOIN]
Not Active: IC50 [1] | Ki [1] | IC50 [2] | IC50 [3] | IC50 [4] | IC50 [5] | Ki [5] | IC50 [6] | IC50 [7] | Ki [7]

CC(Cl)(Cl)Cl [TRICHLOROETHANE]
Not Active: IC50 [1] | Ki [1] | IC50 [2] | IC50 [3] | IC50 [4] | IC50 [5] | Ki [5] | IC50 [6] | IC50 [7] | Ki [7]

CN1C(=O)OC(C)(C)C1=O [TRIMETHADIONE]
Not Active: IC50 [1] | Ki [1] | IC50 [2] | IC50 [3] | IC50 [4] | IC50 [5] | Ki [5] | IC50 [6] | IC50 [7] | Ki [7]

LEAD(IV) ACETATE
Not Active: IC50 [1] | Ki [1] | IC50 [2] | Ki [2] | IC50 [3] | Ki [3] | IC50 [4] | Ki [4] | IC50 [5] | Ki [5] | IC50 [6] | Ki [6] | IC50 [7] | Ki [7]
